Experiments:
HGFR autophosphorylation = assay: Inhibitory activity against the HGFR autophosphorylation using ELISA; type: cell-based; conditions: Homo sapiens, read-out: IC50, concentration necessary to inhibit HGFR autophosphorylation activity by 50%, MKN-45 cells, 1 hr treatment
Procedure: Pharmacological Test Example 3:Inhibitory Activity Against the HGFR Autophosphorylation Using ELISA
1. Preparation of Cell Extract
Human gastric cancer cells (MKN-45) were suspended in a 1% FBS-containing RPMI1640 medium (purchased from Sigma). The cell suspension (1×10^5 cells/ml) was put in a 96-well plate for cell culture (purchased from NUNC, Production No. 167008) at 0.1 ml/well, and then cultured in a 5% CO2 incubator (37° C.) overnight. After the culture, from each well was removed the supernatant solution, followed by adding 0.05 ml of a 1% FBS-containing RPMI1640 medium. […]
Each well of the plate prepared in 2. was washed three times with 200 μl of PBS, and supplied with 150 μl of 3% BSA/PBS, followed by incubating at room temperature for 2 hrs. […] Each well was supplied with 70 μl of 1 M phosphoric acid, and using the Plate Reader MTP-500 (Corona Electric), the absorbance of the well was instantly determined at a measurement wavelength of 450 nm. While defining the absorbance of a well supplied with the cell extract having no test substance as 100% HGFR autophosphorylation activity, and the absorbance, of a well supplied with 50 μl of the lysis buffer as 0% HGFR autophosphorylation activity, the HGFR autophosphorylation activity (%) was calculated for each well. […]

[1] = test system: Human gastric cancer cells (MKN-45); assay: Inhibitory activity against the proliferation of human gastric cancer cells (MKN-45); type: cell-based; conditions: 72 h, read-out: IC50, concentration necessary to inhibit the cell proliferation by 50%, MKN-45, 1% FBS RPMI1640, 3 days, Cell Counting Kit-8
Procedure: Pharmacological Test Example 2:Inhibitory Activity Against the Proliferation of Human Gastric Cancer Cells (MKN-45)
Human gastric cancer cells (MKN-45) were suspended in a 1% FBS-containing RPMI1640 medium (purchased from Sigma). The cell suspension (1×10^4 cells/ml) was added in a 96-well plate for cell culture (purchased from NUNC, Production No. 167008) at 0.1 ml/well, and then cultured in a 5% CO2 incubator (37° C.) overnight. After the culture, each well was supplied with 0.1 ml of a test substance diluted with a 1% FBS-containing RPMI1640 medium, followed by culturing in a 5% CO2 incubator (37° C.) for 3 days. After the culture, each well was supplied with 10 μl of Cell Counting Kit-8 (purchased from DOJINDO, Production No. 343-07623), followed by incubation in a 5% CO2 incubator (37° C.) for about 1.5 hrs. After the incubation, using the Plate Reader MTP-500 (Corona Electric), the absorbance of each well was determined at a measurement wavelength of 450 nm and a reference wavelength of 660 nm.

| SMILES | IC50 (HGFR autophosphorylation) [µM] | IC50 [1] [µM] |
| --- | --- | --- |
| CN1CCN(C2CCN(C(=O)Nc3cc(Oc4ccc(NC(=O)C5(C(=O)Nc6ccc(F)cc6)CC5)c(F)c4)ccn3)CC2)CC1 [compound 1, N-(2-fluoro-4-{[2-({[4-(4-methylpiperazin-1-yl)piperidin-1-yl]carbonyl}amino)pyridin-4-yl]oxy}phenyl)-N′-(4-fluorophenyl)cyclopropane-1,1-dicarboxyamide] | 0.016 | 0.017 |
| O=C(Nc1cc(Oc2cc(F)c(NC(=O)C3(C(=O)Nc4ccc(F)cc4)CC3)cc2F)ccn1)N1CC(O)C1 [compound 2, N-{2,5-difluoro-4-[(2-{[(3-hydroxyazetidin-1-yl)carbonyl]amino}pyridin-4-yl)oxy]phenyl}-N′-(4-fluorophenyl)cyclopropane-1,1-dicarboxyamide] | 0.0084 | 0.005 |
